{"source": "patent US20250057832A1", "about": "“USE OF A CLASS OF 1,4-DIHYDRO-NAPHTHYRIDINE DERIVATIVES IN TREATMENT OF TUMORS” (NEURODAWN PHARMACEUTICAL CO., LTD., priority 2021, published 2025)", "key": {"[1]": {"system": "T98G cells", "experiment": "Vacuolation induction in T98G cells (Example 1)", "type": "cell-based, human", "procedure": "T98G cells were stably passaged twice. When the cell density reached more than 85%, the cells were digested with 0.05% trypsin-EDTA for 3 minutes, resuspended with the culture medium, and plated in a 12-well plate at a certain density, with each well system being 1 mL. The cells were cultured for 24 hours, and added with the compound solution prepared above to each well according to the grouping, so that the concentrations of the compounds in the culture system were respectively 5 μM, 10 μM, 20 μM, 40 μM, and 60 μM. An equal volume of DMSO was added as a control well.\nAfter 6 hours of drug treatment, the plates were observed under a microscope with a 20× objective lens, and five fields of view were randomly selected for each well to take photos and record. If in the observed field of view, bright vacuoles with clear border appeared in the cell, and at least one of the following conditions was met: 1) a cell contained at least 1 vacuole with a diameter greater than 3 μm; 2) a cell contained 3 or more vacuoles with a diameter within the range of 0.5-3 μm, the cell was considered to be methuosis-positive cells.\nAmong them, CELL positive: the number of methuosis-positive cells; CELL normal: the number of cells with normal morphology"}, "[2]": {"system": "T98G subcutaneous transplantation tumor", "experiment": "Human brain glioma T98G subcutaneous model in NOD SCID mice (Example 6)", "type": "in vivo, NOD SCID mouse", "details": "S2 3 mg/kg IV", "procedure": "Human brain glioma T98G cells were cultured in vitro. The cells were cultured in EMEM medium added with 10% fetal calf serum, 100 U/mL penicillin and 100 µg/mL streptomycin, in a 37° C. 5% CO2 incubator. After the number of cells reached the required number, the cells were collected. 0.2 mL (10×10^6) of T98G tumor cells (PBS:Matrigel=1:1) were subcutaneously inoculated into the right back of each mouse. The mice were grouped and administered when the average tumor volume reached approximately 147 mm^3. […]\nTumor diameters were measured with vernier calipers twice a week, and tumors were weighed and photographed after the experiment.\n1.5 Data Statistics The tumor volume was calculated as follows: V=0.5a×b^2, where a and b represent the long and short diameters of the tumor respectively.\nThe tumor inhibitory effect was evaluated by TGI (%) or relative tumor proliferation rate T/C (%).\nThe tumor inhibitory effect was calculated as TGI (%): TGI %=[1-(average tumor volume at the end of administration in a certain treatment group−average tumor volume at the beginning of administration in the treatment group)/(average tumor volume at the end of administration in the vehicle control group−average tumor volume in the vehicle control group at the beginning of treatment)]×100. […]"}, "[3]": {"system": "neural tumor cells and non-neural tumor systems", "experiment": "Cell viability assay, summary over tumor cell lines (Example 2)", "type": "cell-based", "details": "neural and non-neural tumor cells of Table 3, 48 hours; read-out: IC50, range over tumor cell lines", "procedure": "(§1) U87MG, T98G, U251, SK-N-SH, A-172 and HepG2 cells were adherently cultured in MEM+10% FBS+1% P/S medium and passaged at 1:3; CT26.WT cells were adherently cultured in RPMI-1640+10% FBS+1% P/S medium and passaged at 1:3; CHO-K1 was cultured adherently in Ham's F-12K+10% FBS+[…] medium and passaged at 1:3.\nThe above various cells were resuscitated and stably passaged twice. When the cell density reached above 85%, the cells were digested with 0.05% trypsin-EDTA for three minutes, resuspended, plated in a 96-well plate at the corresponding density, and cultured for 24 hours. The cells were treated with drugs at final concentrations of the culture system of 0.41 μM, 1.23 μM, 3.7 μM, 11.1 μM, 33.3 μM, and 100 μM. After 48 hours of drug treatment, cell viability was determined using CellCounting-Lite™ 2.0 kit. The plate was added with reagents at 100 µL/well according to the CellCounting-Lite™ 2.0 kit instructions, and shaken for 10 minutes. The luminescence value (LUM) was read on a multi-function plate reader, and the relative viability of the cells was calculated.\nRelative viability of tumor cells V (%)=(LUM-LUMbackground)/(LUMnormal control−LUMbackground)×100%. LUMbackground was the background reading of the complete culture medium well added with the detection reagent. The half inhibitory concentration (IC50) was calculated using GraphPad Prism 8.0.1 statistical software."}, "[4]": {"system": "SK-N-SH", "experiment": "Vacuolation phenotype by S2 (Example 2)", "type": "cell-based, human", "details": "30 μM, 6 hours", "procedure": "as §1\n(§2) The cells used above were resuscitated and passaged twice stably. When the cell density reached above 85%, the cells were digested with 0.05% trypsin-EDTA for 3 minutes, resuspended with the culture medium, and plated into a 6-well plate at a certain density, with each well system being 2 mL. The cells were cultured for 24 hours, added with 2 μL of the above-prepared S2 solution (final DMSO concentration 0.1%) to each well according to the grouping, such that the S2 concentration in the cell culture system reached 30 μM.\n(§3) After 6 hours of drug treatment, the plate was observed under a microscope with a 20× objective lens, and five fields of view were randomly selected for each well to take photos and record. If bright vacuoles with clear border appeared in the cell in the observed field of view, and at least one of the following conditions was met: 1) a cell contained at least one vacuole with a diameter greater than […]; 2) a cell contained 3 or more vacuoles with a diameter within the range of […], the cell was considered as a methuosis-positive cell (Journal of Medicinal Chemistry 2018 61 (12), 5424-5434).\n(§4) CELLpositive: the number of methuosis-positive cells; CELLnormal: the number of cells with normal morphology"}, "[5]": {"system": "T98G", "experiment": "Vacuolation phenotype by S2 (Example 2)", "type": "cell-based, human", "details": "30 μM, 6 hours", "procedure": "as §1, §2, §3, §4"}, "[6]": {"system": "A172", "experiment": "Vacuolation phenotype by S2 (Example 2)", "type": "cell-based, human", "details": "A172, 30 μM, 6 hours", "procedure": "as §1, §2, §3, §4"}, "[7]": {"system": "U87MG", "experiment": "Vacuolation phenotype by S2 (Example 2)", "type": "cell-based, human", "details": "30 μM, 6 hours", "procedure": "as §1, §2, §3, §4"}, "[8]": {"system": "HepG2", "experiment": "Vacuolation phenotype by S2 (Example 2)", "type": "cell-based, human", "details": "HepG2, 30 μM, 6 hours", "procedure": "as §1, §2, §3, §4"}}, "note": "Entries after “also recorded” stand apart in the source; their conditions may differ."}
{"smiles": "CCOC(=O)C1=C(C)Nc2nc3c(c(N)c2C1c1ccccc1Cl)CC(C)(C)CC3", "note": "(stereo not shown) [Compound S2]", "values": [{"measurement": "Rank of vacuolation-inducing activity among the derivatives", "setting": "[1]", "result": "strongest vacuolation-inducing activity"}, {"measurement": "Induction of vacuolation in T98 cells", "setting": "[1]; FIG. 1 and Table 1", "result": "can induce vacuolation"}, {"measurement": "Tumor volume growth vs vehicle (FIG. 13A-C)", "setting": "[2]", "result": "significantly inhibited tumor volume growth; also recorded: inhibited the growth of T98 glioma"}, {"measurement": "Tumor weight at end of experiment vs control (FIG. 13D)", "setting": "[2]", "result": "significantly lower than that in the control group; also recorded: reduced the volume and weight of solid tumors"}, {"measurement": "IC50", "setting": "[3]", "result": "4.7 to 14.3", "unit": "µM"}, {"measurement": "Induction of vacuolation", "setting": "[4]", "result": "can induce vacuolation"}, {"measurement": "Induction of vacuolation", "setting": "[5]", "result": "can induce vacuolation"}, {"measurement": "Induction of vacuolation", "setting": "[6]", "result": "can induce vacuolation"}, {"measurement": "Induction of vacuolation", "setting": "[7]", "result": "can induce vacuolation"}, {"measurement": "Induction of vacuolation", "setting": "[8]", "result": "can also induce vacuolation"}]}
